{"source": "paper PMC3495945", "about": "“Org 214007-0: A Novel Non-Steroidal Selective Glucocorticoid Receptor Modulator with Full Anti-Inflammatory Properties and Improved Therapeutic Index” (PLoS ONE, 2012)", "molecular_target": "T1, human chimeric glucocorticoid-mineralocorticoid receptor (GGM) (Homo sapiens, UniProt P04150+P08235, G607S/G671E/L660Y/Q661R/V618L)", "T1 construct": "glucocorticoid receptor part of the chimera (human NR3C1, P04150); expressed in transfected cells; host or cells: CHO K1", "T1 sequence (P04150+P08235 with tags, fused parts or gaps P08235:G607S/P08235:V618L/P08235:L660Y/P08235:Q661R/P08235:G671E)": "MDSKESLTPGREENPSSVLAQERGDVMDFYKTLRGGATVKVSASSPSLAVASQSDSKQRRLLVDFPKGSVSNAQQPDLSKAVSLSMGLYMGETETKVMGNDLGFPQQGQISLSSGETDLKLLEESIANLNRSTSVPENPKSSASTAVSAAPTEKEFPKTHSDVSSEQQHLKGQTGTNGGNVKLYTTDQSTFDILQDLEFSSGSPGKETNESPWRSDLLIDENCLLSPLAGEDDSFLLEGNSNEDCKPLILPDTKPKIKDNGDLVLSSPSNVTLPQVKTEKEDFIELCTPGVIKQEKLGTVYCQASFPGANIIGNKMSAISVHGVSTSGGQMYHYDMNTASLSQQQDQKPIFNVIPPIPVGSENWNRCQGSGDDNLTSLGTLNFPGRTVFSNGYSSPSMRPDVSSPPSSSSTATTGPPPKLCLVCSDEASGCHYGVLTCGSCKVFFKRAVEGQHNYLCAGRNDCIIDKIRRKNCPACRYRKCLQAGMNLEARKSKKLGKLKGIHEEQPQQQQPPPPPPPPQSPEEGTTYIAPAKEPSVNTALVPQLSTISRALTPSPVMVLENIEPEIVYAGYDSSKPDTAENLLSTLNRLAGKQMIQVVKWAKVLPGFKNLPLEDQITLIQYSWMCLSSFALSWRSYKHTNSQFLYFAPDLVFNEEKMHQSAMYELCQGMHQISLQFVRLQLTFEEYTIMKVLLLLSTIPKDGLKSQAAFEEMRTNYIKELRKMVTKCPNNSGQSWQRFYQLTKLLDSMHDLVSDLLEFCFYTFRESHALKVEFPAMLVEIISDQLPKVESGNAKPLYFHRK", "experiment": "CHO steroid receptor reporter assay, MR (GGM) / MMTV-Luc", "type": "cell-based", "from_the_text": "For monitoring both human steroid receptor agonistic as well as antagonistic activity of compounds, Chinese hamster ovary (CHO) K1 cells stably co-transfected with the specific human steroid receptor and its respective reporter construct were used (as previously described).\nFor human glucocorticoid receptor (GR)-specific activity CHO-GR B4.8 cells containing both recombinant human GR as well as a reporter construct consisting of the mouse mammary tumor virus (MMTV) promotor and the luciferase reporter gene, were used. Compound was incubated alone (in the agonistic setup) or with 50 nM dexamethasone (in the antagonistic setup) overnight. Hereafter, 200 µl medium was removed and 50 µl luciferine substrate solution from the LucLite luminescence kit (Packard, Meriden, USA) was added. […] Percentage maximal antagonistic efficacy was related to the maximal antagonistic efficacy of reference GR antagonist Org 34116. Similar procedures were followed for the other human steroid receptor assays (for more detailed information see Supportive Information) (SI text).\nSimilar procedures were followed for the other human steroid receptor assays containing combinations of human progesterone receptor B (PR-B) and MMTV-Luc, human androgen receptor (AR) and MMTV-Luc, human chimeric glucocorticoid-mineralocorticoid receptor (GGM, Trapp et al. (1994), Neuron 13: 1457) and MMTV-Luc, human estrogen receptor alpha (ERα) and rat oxytocin-Luc (45), and human estrogen receptor beta (ERβ) and rat oxytocin-Luc, respectively.", "note": "pEC50, pIC50: −log10 of the molar value.", "data": [{"smiles": "Cc1nnsc1C(=O)N[C@H]1CCN2c3ccc(C#N)cc3[C@@H](C)c3ccccc3[C@@H]2C1", "note": "[Org 214007-0]", "values": [{"measurement": "Emax", "setting": "read-out: % efficacy (antagonist)", "result": "> 40", "unit": "%"}, {"measurement": "pEC50", "setting": "read-out: EC50 (agonist)", "result": "< 6.00"}, {"measurement": "pIC50", "setting": "read-out: IC50 (antagonist)", "result": "< 5.90"}, {"measurement": "% agonist potency", "setting": "relative to reference compound", "result": "<0.1", "unit": "%"}, {"measurement": "% antagonist potency", "setting": "relative to reference compound", "result": "<1.27", "unit": "%"}]}]}
